“And” between values parts separate entries of the source, which are not always exact repeats. Equal values may be shown once.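 48-hour exposure; five concentrations; linearly interpolated endpoints. GI50 is the concentration that inhibits growth by half. TGI: concentration producing complete growth inhibition.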 Where a SMILES comes first, the peptide text is derived from it. [ ]: non-standard residue; d: D form. The star is where a group is joined. Phe(4-NO2) = N[CH](Cc1ccc([N+](=O)[O-])cc1)C(=O)O; Boc = CC(C)(C)OC(=O)*
Tests used:
Test in all cases: DTP human tumour cell line panel, 48 h
SK-MEL-2 melanoma = system: SK-MEL-2 melanoma
SR leukemia = system: SR leukemia
ACHN renal = system: ACHN renal
SN12C renal = system: SN12C renal
HCT-15 colon = system: HCT-15 colon
MCF7 breast = system: MCF7 breast
MALME-3M melanoma = system: MALME-3M melanoma
PC-3 prostate = system: PC-3 prostate
NCI/ADR-RES ovarian = system: NCI/ADR-RES ovarian
CAKI-1 renal = system: CAKI-1 renal

SMILES	TGI (SK-MEL-2 melanoma) [µM]	TGI (SR leukemia) [µM]	TGI (ACHN renal) [µM]	TGI (SN12C renal) [µM]	TGI (HCT-15 colon) [µM]	TGI (MCF7 breast)	TGI (MALME-3M melanoma) [µM]	TGI (PC-3 prostate) [µM]	GI50 (NCI/ADR-RES ovarian) [µM]	TGI (NCI/ADR-RES ovarian) [µM]	GI50 (SR leukemia) [µM]	GI50 (ACHN renal) [µM]	GI50 (CAKI-1 renal) [µM]	TGI (CAKI-1 renal) [µM]	GI50 (SN12C renal) [µM]	GI50 (HCT-15 colon) [µM]	GI50 (MCF7 breast) [µM]	GI50 (PC-3 prostate) [µM]	GI50 (SK-MEL-2 melanoma) [µM]	GI50 (MALME-3M melanoma) [µM]
CC(=O)CC(=O)N1CCSC1=S	> 10	> 10	> 10	> 10	> 10	> 10 µM	> 10	> 10	–	–	–	–	–	–	–	–	–	–	–	–
COc1cc2nc(N3CCC[C@H](NC4=CC(=O)c5ccccc5C4=O)C3)nc(N)c2cc1OC	–	2.94	3.47	3.51	4.86	3.3 µM	–	3.67	2.34	5.44	0.28	1.84	1.89	3.91	1.73	2.01	1.61	1.75	–	–
O=CC(O)C(O)C(O)C(O)COC(=O)NCCCCC(=O)C(F)(F)C(F)(F)C(F)(F)C(F)(F)C(F)(F)C(F)(F)C(F)(F)F (stereo not given)	57.5	> 100	> 100	> 100	> 100	34 µM	> 100	41.5	–	> 100	–	–	–	> 100	–	–	–	–	–	–
CC(C)(C)c1cc(OCc2nnc3sc(Cc4ccccc4)nn23)c(Cl)cc1OCc1nnc2sc(Cc3ccccc3)nn12	> 100	70.6	68	> 100	> 100	37.2 µM	> 100	> 100	–	> 100	–	–	–	> 100	–	–	–	–	–	–
Cc1cc(C)c2c(c1)C/C(=C\c1cccc(C)c1C(=O)O)C2=O	> 100	> 100	> 100	> 100	> 100	–	> 100	> 100	–	–	–	–	–	> 100	–	–	–	–	–	–
COc1cc(S(=O)(=O)Nc2ccc(-c3csc(N4C(=O)C(Cl)C4c4ccccc4O)n3)cc2)ccc1Cl (stereo not given)	> 100	52	> 100	> 100	> 100	54.2 µM	> 100	> 100	–	> 100	–	–	–	> 100	–	–	–	–	–	–
CCOC(=O)CCc1cn2cc(Br)nc(OC)c2n1	> 100	> 100	–	> 100	> 100	> 100 µM	> 100	> 100	–	> 100	–	–	–	> 100	–	–	–	–	–	–
c1ccc2c[n+](CCCC[n+]3ccc4ccccc4c3)ccc2c1	> 100	> 100	> 100	> 100	> 100	> 100 µM	–	> 100	–	> 100	–	–	–	> 100	–	–	–	–	–	–
C/C(=N\Nc1nc2ccccc2[nH]1)c1ncccn1	17.7	> 100	0.201	0.991	> 100	–	8.89	> 66	–	0.426	–	–	–	23.7	–	–	–	–	–	–
COc1cccc2c1OC1c3ccccc3OCC1(O)C2 (stereo not given)	> 100	–	> 100	> 100	> 100	> 100 µM	> 100	> 100	–	> 100	–	–	–	> 100	–	–	–	–	–	–
Oc1ccc(Cl)cc1-c1cc(-c2ccccc2)nc(=S)[nH]1	78.2	–	> 100	> 100	> 100	> 100 µM	> 100	> 100	–	> 100	–	–	–	> 100	–	–	–	–	–	–
Cc1c(OCc2cccc3ccccc23)ccc2c(=O)cc(SCCN3CCOCC3)oc12	> 100	> 100	> 100	> 100	> 100	> 100 µM	–	> 100	–	> 100	–	–	–	> 100	–	–	–	–	–	–
COc1cccc(C(C#N)NNC(=O)c2c(Cl)c(Cl)c(Cl)c(Cl)c2-c2nc3ccc(C(=O)c4ccccc4)cc3[nH]2)c1O (stereo not given)	29.4	> 100	> 100	7.79	> 100	> 100 µM	–	> 100	–	–	–	–	–	> 100	–	–	–	–	–	–
Cc1ccc(N=C/C=C(\Nc2ccc(C)cc2)c2ccc3ccccc3c2)cc1	11.2	1.44	7.77	–	4.24	16.5 µM	14	18	–	2.16	–	–	–	12.7	–	–	–	–	–	–
COC(=O)c1c2c(cc3c1CC1(Cc4cc5c(c(C)c4C1)CCC5)C3)CCC2 (stereo not given)	> 100	> 100	> 100	–	> 100	> 100 µM	> 100	> 100	–	> 100	–	–	–	> 100	–	–	–	–	–	–
C=C(Br)C[N+]12CN3CN(CN(C3)C1)C2	> 100	> 100	> 100	> 100	> 100	–	> 100	> 100	–	> 100	–	–	–	> 100	–	–	–	–	–	–
CC(C)[C@H](C)/C=C/[C@@H](C)C1CC[C@H]2[C@@]34C=C[C@]5(C[C@@H](O)CC[C@]5(C)[C@H]3CC[C@]12C)OO4 (stereo not given in full)	88.8	–	> 100	79.7	> 100	> 100 µM	–	–	–	50.2	–	–	–	55.3	–	–	–	–	–	–
C=CC(C)(C)/C=C/c1ccc(O)cc1	60.5	–	> 100	> 100	> 100	> 100 µM	> 100	89.4	–	> 100	–	–	–	> 100	–	–	–	–	–	–
CC(CCc1nc2ccccc2s1)(c1ccc(O)cc1)c1ccc(O)cc1	31.4	53.3	33.2	33.6	35.4	–	31	27.9	–	57.2	–	–	–	45	–	–	–	–	–	–
O=Nc1c(-c2c(O)[nH]c3ccc(I)cc23)[nH]c2ccccc12	4.93	–	> 21.4	17.9	> 39.9	> 19.9 µM	> 32.7	> 27.9	–	> 63.4	–	–	–	> 100	–	–	–	–	–	–
Oc1c(Cl)cc2cc1-c1cc(cc(Cl)c1O)CCc1c(cc(Cl)c(O)c1Cl)-c1cc(Cl)c(c(Cl)c1O)/C=C\2	17.5	> 50	29.7	–	17.4	–	–	20.3	–	30.8	–	–	–	–	–	–	–	–	–	–
O=C(O)Cn1c2c(c3c1-c1ccccc1C3=O)C(=O)CCC2	> 100	–	> 100	> 100	> 100	> 100 µM	> 100	–	> 100	> 100	–	> 100	> 100	> 100	> 100	> 100	> 100	–	> 100	> 100
COc1ccc(/C=c2\[nH]c3nc(=O)c(N4CCCCC4)c(N)n3c2=O)cc1	–	> 100	> 100	> 100	> 100	> 100 µM	> 100	–	–	> 100	–	–	–	> 100	–	–	–	–	–	–

SMILES	TGI (SK-MEL-2 melanoma) [µM]	TGI (SR leukemia) [µM]	TGI (ACHN renal) [µM]	TGI (SN12C renal) [µM]	TGI (HCT-15 colon) [µM]	TGI (MCF7 breast)	TGI (MALME-3M melanoma) [µM]	TGI (PC-3 prostate) [µM]	GI50 (NCI/ADR-RES ovarian) [µM]	TGI (NCI/ADR-RES ovarian) [µM]	GI50 (SR leukemia) [µM]	GI50 (ACHN renal) [µM]	GI50 (CAKI-1 renal) [µM]	TGI (CAKI-1 renal) [µM]	GI50 (SN12C renal) [µM]	GI50 (HCT-15 colon) [µM]	GI50 (MCF7 breast) [µM]	GI50 (PC-3 prostate) [µM]	GI50 (SK-MEL-2 melanoma) [µM]	GI50 (MALME-3M melanoma) [µM]
COC(=O)[C@@H](NS(=O)(=O)CC12CCC(CC1)C2(C)C)C(C)(C)C	> 100	> 100	> 100	> 100	> 100	> 100 µM	> 100	–	–	> 100	–	–	–	> 100	–	–	–	–	–	–
Cc1cc2c(=O)c3ccc(Cl)cc3[nH]c2c(C(N)=O)c1C	> 100	–	> 100	> 100	> 100	–	> 100	–	–	–	–	–	–	–	–	–	–	–	–	–
O=C1CC(c2ccsc2)n2cccc21 (stereo not given)	> 100	> 100	> 100	> 100	> 100	> 100 µM	–	> 100	–	> 100	–	–	–	> 100	–	–	–	–	–	–
O=C1C(N2CCN(CCOCCO)CC2)=C(Cl)C(=O)c2ncccc21	43.9	–	33.4	35.3	37.4	5.97 µM and 36.7 µM	33.8	38.9	–	> 100	–	–	–	31.8	–	–	18.3	–	–	19.3
Cc1cn(C2CC(COCc3ccccc3)N(CCO[Si](C)(C)C(C)(C)C)O2)c(=O)[nH]c1=O (stereo not given)	30	71.4	28.9	25.1	–	33 µM	34.3	18.1	–	28.9	–	–	–	32.7	–	–	–	–	–	–
O=C1c2ccccc2C2(c3ccc(F)cc3)NCCN12 (stereo not given)	> 100	–	> 100	> 100	> 100	> 100 µM	> 100	> 100	–	> 100	–	–	–	> 100	–	–	–	–	–	–
Cc1cc(S(=O)(=O)Nc2nc3cscc3c(=O)n2N)c(S)cc1Cl	> 100	–	> 100	> 100	> 100	> 100 µM	90.4	> 100	–	73.4	–	–	–	> 100	–	–	–	–	–	–
C/C(=C\Cc1ccc(F)cc1)CCCCCC/C(C)=C/Cc1ccc(F)cc1	37.2	57.2	24.8	31.5	34.1	45.8 µM	–	33.3	–	31.9	–	–	–	25.5	–	–	–	–	–	–
Cc1nc(C)c(N2CCN(CN)CC2)c(=O)[nH]1	–	> 100	> 100	> 100	> 100	> 100 µM	> 100	> 100	–	> 100	–	–	–	> 100	–	–	–	–	–	–
Cc1ccc(-n2nncc2[Si](C)(C)C)s1	> 100	–	> 100	> 100	> 100	> 100 µM	> 100	> 100	–	> 100	–	–	–	> 100	–	–	–	–	–	–
CCC1=C(C[C@H]2NCCc3cc(OC)c(OC)cc32)C[C@H]2c3cc(OC)c(OC)cc3CCN2C1	0.0713	55.1	0.28	0.193	1.02	–	0.637	–	–	–	–	–	–	0.199	–	–	–	–	–	–
COc1ccc(OC)c2c(C)ccnc12	> 100	–	> 100	> 100	> 100	> 100 µM	> 74.3	> 100	–	67.4	–	–	–	> 100	–	–	–	–	–	–
CCOC(=O)c1c(N2CCCC2)[nH]c(=O)c(C(c2ccc(N(C)C)cc2)c2c(O)c(C(=O)OCC)c(N3CCCC3)[nH]c2=O)c1O	–	> 100	> 100	> 100	> 100	> 100 µM	> 100	> 100	–	> 100	–	–	–	> 100	–	–	–	–	–	–
CCOC(=O)c1cc2c3c(c(C(C)=O)c(OC)c2[nH]1)N(C(=O)CC)CC3	48.3	–	–	42.9	34.2	40.4 µM	35.8	72.7	–	31	–	–	–	35.9	–	–	–	–	–	–
CCOc1ccc2nc3nc(=O)[nH]c(C)c3c(NC(C)(CO)CO)c2c1	> 100	–	> 100	> 100	> 100	> 100 µM	> 100	> 100	–	> 100	–	–	–	> 100	–	–	–	–	–	–
Cn1c2ccccc2n2c3ncccc3c(=O)cc12	–	–	> 100	> 100	> 100	–	> 100	–	–	> 100	–	–	–	> 100	–	–	–	–	–	–
COc1cc2c3c(n(C)c(=O)c2cc1OC)-c1cc2c(cc1/C3=C\CCCCCBr)OCO2	> 100	14.1	41.7	> 100	> 100	> 100 µM	–	> 100	–	> 100	–	–	–	> 100	–	–	–	–	–	–
O=c1c2ccccc2nc(N/N=C/c2ccc([N+](=O)[O-])cc2)n1-c1ccccc1	–	> 100	62.9	> 100	> 100	> 100 µM	> 100	> 100	–	> 100	–	–	–	49.4	–	–	–	–	–	–
c1ccc2c(Nc3ncco3)cccc2c1	–	> 10	> 10	> 10	> 10	> 10 µM	> 10	> 10	–	> 10	–	–	–	> 10	–	–	–	–	–	–
O=C1c2ccncc2C(=O)c2c(O)ccc(O)c21	–	52.3	17.1	16.1	24.3	–	5.44	–	–	–	–	–	–	–	–	–	–	–	–	–
CCOC(=O)CCC(NC(=O)C(Cc1ccc([N+](=O)[O-])cc1)NC(=O)OC(C)(C)C)C(=O)NC(CCC(=O)OCC)C(=O)OCC (stereo not given) (Boc-[Phe(4-NO2)]-Glu(OEt)-Glu(OEt)-OEt; configuration not given here)	25.9	9.38	31.1	49.7	> 100	> 100 µM	35	39.5	–	–	–	–	–	–	–	–	–	–	–	–
CCOC(=O)C1CCC(=O)N1C(=O)c1cccc(Cl)c1 (stereo not given)	–	> 100	> 100	> 100	> 100	> 100 µM	> 100	> 100	–	> 100	–	–	–	> 100	–	–	–	–	–	–
